Test results from ChEMBL document CHEMBL5441381, “ASAP - In vitro antiviral effect” (2024).
Several values for one entry are separate records, joined by “and”; a condition that tells them apart may be missing. Equal entries are not always repeated.

Columns and labels:
SARS-CoV-2 [1] = test: (§1) Functional immunofluorescence assay to measure dose dependent changes in antiviral-drug inhibitory efficacy against hCoV-19/USA-WA1/2020 in HeLa-ACE2 cells which are seeded prior to drug treatment, then infected with hCoV-19/USA-WA1/2020. Cells are fixed with 10 % formaldehyde, washed with PBS, permeabilized with permeabilization buffer, then washed with wash buffer. The cells are incubated with nucleoprotein primary antibody IC7C7. Following primary staining, cells are washed with wash buffer and incubated in a solution of with Alexa fluor 488 and DAPI. Infected and uninfected cells are visualized and analyzed by Gen5 software. The assay has been performed by Icahn School of Medicine at Mount Sinai.; format: organism-based, Homo sapiens
SARS-CoV-2 [2] = test: as §1, with “iPSC-Pneumocyte” for “HeLa-ACE2”, “to” for “to drug”; format: organism-based, Homo sapiens; details: for EC90: Baseline response 0 %, Maximum response 100 %
[3] = Severe acute respiratory syndrome coronavirus 2, HeLa-ACE2

SMILES: CC(C)[C@@H](Nc1ncnc2[nH]c(-c3cnn(C)c3C#N)cc12)c1ccc2c(c1)OCCO2
- EC90 (SARS-CoV-2 [1]; Baseline response 0 %, EC90 CI (lower) 0.491 uM, EC90 CI (upper) 1.004 uM, Hill slope -2.446, Maximum measured 109.522 %, Maximum response 100 %, Minimum measured 0 %, R squared 0.979): 4.23 µM
- EC50 (SARS-CoV-2 [1]; [3]): 1.73 µM
- EC90 (SARS-CoV-2 [1]; Severe acute respiratory syndrome coronavirus 2, HeLa-ACE2, Baseline response 0 %, EC90 CI (lower) 0.194 uM, EC90 CI (upper) 2.46 uM, Hill slope -2.403, Maximum measured 109.522 %, Maximum response 100 %, Minimum measured 3.811 %, R squared 0.7): 4.31 µM
- EC50 (SARS-CoV-2 [1]; hela-ace2): 1.72 µM
- EC90 (SARS-CoV-2 [2]; Severe acute respiratory syndrome coronavirus 2, Pneumocyte, Hill slope -15.978, Maximum measured 108.15 %, Minimum measured 1.229 %, R squared 0.666): 16.2 µM
- EC90 (SARS-CoV-2 [2]; Severe acute respiratory syndrome coronavirus 2, Pneumocyte, EC90 CI (lower) 0 uM, EC90 CI (upper) 0 uM, Hill slope -11.115, Maximum measured 116.315 %, Minimum measured 8.563 %, R squared 0.796): 6.57 µM
- EC50 (SARS-CoV-2 [2]; pneumocyte): 14.1 µM and 5.39 µM

SMILES: CC(C)[C@@H](Nc1ncnc2[nH]cc(C(=O)NC3CC3)c12)c1ccc2c(c1)S(=O)(=O)CCC2
- EC50 (SARS-CoV-2 [1]; [3]): 14.4 µM
- EC90 (SARS-CoV-2 [1]; Severe acute respiratory syndrome coronavirus 2, HeLa-ACE2, Baseline response 0 %, Hill slope -1.207, Maximum measured 103.36 %, Maximum response 100 %, Minimum measured 37.723 %, R squared 0.64): > 20 µM

SMILES: CC(C)[C@@H](Nc1ncnc2[nH]c(-c3ccc4nnn(C)c4c3)cc12)c1ccc2c(c1)S(=O)(=O)CCC2
- EC50 (SARS-CoV-2 [1]; [3]): 3.64 µM
- EC90 (SARS-CoV-2 [1]; Severe acute respiratory syndrome coronavirus 2, HeLa-ACE2, Baseline response 0 %, Hill slope -0.69, Maximum measured 110.665 %, Maximum response 100 %, Minimum measured 33.895 %, R squared 0.849): > 20 µM

SMILES: CC(C)[C@@H](Nc1ncnc2[nH]c(-c3cnn(CCC(N)=O)c3)cc12)c1ccc2c(c1)OCCO2
- EC50 (SARS-CoV-2 [1]; [3]): > 20 µM
- EC90 (SARS-CoV-2 [1]; Severe acute respiratory syndrome coronavirus 2, HeLa-ACE2, Maximum measured 112.19 %, Minimum measured 96.19 %): > 20 µM
- EC90 (SARS-CoV-2 [1]; Severe acute respiratory syndrome coronavirus 2, HeLa-ACE2, Maximum measured 121.913 %, Minimum measured 97.771 %): > 20 µM

SMILES: CC(C)[C@@H](Nc1ncnc2[nH]c(-c3ccc4cncn4c3)cc12)c1ccc2c(c1)S(=O)(=O)CCC2
- EC50 (SARS-CoV-2 [1]; [3]): 7.12 µM
- EC90 (SARS-CoV-2 [1]; Severe acute respiratory syndrome coronavirus 2, HeLa-ACE2, Baseline response 0 %, Hill slope -0.819, Maximum measured 92.609 %, Maximum response 100 %, Minimum measured 28.375 %, R squared 0.905): > 20 µM

SMILES: CC(C)[C@@H](Nc1ncnc2[nH]c(-c3cncc(S(C)(=O)=O)c3)cc12)c1ccc2c(c1)S(=O)(=O)CCC2
- EC50 (SARS-CoV-2 [1]; [3]): > 20 µM
- EC90 (SARS-CoV-2 [1]; Severe acute respiratory syndrome coronavirus 2, HeLa-ACE2, Maximum measured 119.816 %, Minimum measured 96.629 %): > 20 µM

SMILES: CC(C)[C@@H](Nc1ncnc2[nH]c(-c3cnn(CC(N)=O)c3)cc12)c1ccc2c(c1)S(=O)(=O)CCC2
- EC50 (SARS-CoV-2 [1]; [3]): > 20 µM
- EC90 (SARS-CoV-2 [1]; Severe acute respiratory syndrome coronavirus 2, HeLa-ACE2, Maximum measured 127.59 %, Minimum measured 107.301 %): > 20 µM

SMILES: CNC(=O)c1cc2c(N[C@@H](c3ccc4c(c3)S(=O)(=O)CCC4)C(C)C)ncnc2[nH]1
- EC50 (SARS-CoV-2 [1]; [3]): > 20 µM
- EC90 (SARS-CoV-2 [1]; Severe acute respiratory syndrome coronavirus 2, HeLa-ACE2, Maximum measured 104.869 %, Minimum measured 90.681 %): > 20 µM

SMILES: CNC(=O)c1cccc(-c2cc3c(N[C@H](c4ccc5c(c4)S(=O)(=O)CCC5)C(C)C)ncnc3[nH]2)c1
- EC50 (SARS-CoV-2 [1]; [3]): > 20 µM
- EC90 (SARS-CoV-2 [1]; Severe acute respiratory syndrome coronavirus 2, HeLa-ACE2, Baseline response 0 %, Hill slope -6.666, Maximum measured 112.086 %, Maximum response 100 %, Minimum measured 84.591 %, R squared 0.065): > 20 µM

SMILES: CC(C)[C@@H](Nc1ncnc2[nH]c(-c3cnn(CC(=O)N(C)C)c3)cc12)c1ccc2c(c1)OCCO2
- EC50 (SARS-CoV-2 [1]; [3]): > 20 µM
- EC90 (SARS-CoV-2 [1]; Severe acute respiratory syndrome coronavirus 2, HeLa-ACE2, Baseline response 0 %, Hill slope -0.679, Maximum measured 102.904 %, Maximum response 100 %, Minimum measured 72.697 %, R squared 0.733): > 20 µM
- EC90 (SARS-CoV-2 [1]; Severe acute respiratory syndrome coronavirus 2, HeLa-ACE2, Baseline response 0 %, Hill slope -5.712, Maximum measured 120.313 %, Maximum response 100 %, Minimum measured 86.961 %, R squared 0.099): > 20 µM

SMILES: CC(C)[C@@H](Nc1ncnc2[nH]c(-c3cnn(CC(=O)N(C)C)c3)cc12)c1ccc2c(c1)S(=O)(=O)CCC2
- EC50 (SARS-CoV-2 [1]; [3]): > 20 µM
- EC90 (SARS-CoV-2 [1]; Severe acute respiratory syndrome coronavirus 2, HeLa-ACE2, Baseline response 0 %, Hill slope -0.117, Maximum measured 98.615 %, Maximum response 100 %, Minimum measured 84.991 %, R squared 0.091): > 20 µM

SMILES: CC(C)[C@@H](Nc1ncnc2[nH]c(-c3cnn(C)c3C#N)cc12)c1ccc2c(n1)NC(=O)CO2
- EC50 (SARS-CoV-2 [1]; [3]): 2.46 µM
- EC90 (SARS-CoV-2 [1]; Severe acute respiratory syndrome coronavirus 2, HeLa-ACE2, Baseline response 0 %, EC90 CI (lower) 0.524 uM, EC90 CI (upper) 2.251 uM, Hill slope -2.687, Maximum measured 122.922 %, Maximum response 100 %, Minimum measured 8.802 %, R squared 0.907): 5.57 µM

SMILES: Cn1ncc(-c2cc3c(N[C@@H](c4ccc5c(c4)OCCO5)C(C)(C)C)ncnc3[nH]2)c1C#N
- EC90 (SARS-CoV-2 [1]; Baseline response 0 %, EC90 CI (lower) 0.293 uM, EC90 CI (upper) 0.492 uM, Hill slope -2.031, Maximum measured 93.387 %, Maximum response 100 %, Minimum measured 1.413 %, R squared 0.981): 3.3 µM
- EC50 (SARS-CoV-2 [1]; [3]): 1.05 µM
- EC90 (SARS-CoV-2 [1]; Severe acute respiratory syndrome coronavirus 2, HeLa-ACE2, Baseline response 0 %, EC90 CI (lower) 0.423 uM, EC90 CI (upper) 0.632 uM, Hill slope -3.108, Maximum measured 91.316 %, Maximum response 100 %, Minimum measured 1.9 %, R squared 0.978): 2.12 µM
- EC50 (SARS-CoV-2 [1]; hela-ace2): 1.12 µM
- EC50 (SARS-CoV-2 [2]; Severe acute respiratory syndrome coronavirus 2, Pneumocyte): 7.67 µM
- EC90 (SARS-CoV-2 [2]; Severe acute respiratory syndrome coronavirus 2, Pneumocyte, EC90 CI (lower) 1.944 uM, EC90 CI (upper) 9.946 uM, Hill slope -3.954, Maximum measured 131.986 %, Minimum measured 2.165 %, R squared 0.772): 13.4 µM

SMILES: CCNC(=O)c1cc2c(N[C@H](c3ccc4c(c3)OCCO4)C(C)C)ncnc2[nH]1
- EC50 (SARS-CoV-2 [1]; [3]): 19.7 µM
- EC90 (SARS-CoV-2 [1]; Severe acute respiratory syndrome coronavirus 2, HeLa-ACE2, Baseline response 0 %, Hill slope -1.464, Maximum measured 109.949 %, Maximum response 100 %, Minimum measured 49.504 %, R squared 0.869): > 20 µM
